Assay results published in US6733971B2, “Method for identifying an agent that affects a hedgehog signaling pathway” (priority 1998, dated 2004).

Key:
COUP-TFII mRNA = COUP-TFII mRNA in P19 cells, RNase protection assay; type: cell-based, mouse; conditions: for Shh-induced COUP-TFII mRNA: with 1.0 nM Shh-N
Description: The P19 mouse embryo carcinoma cell line which was earlier shown to contain increased levels of COUP-TF transcripts after retinoid treatment was utilized. Jonk, L. J. C., et al., Mechan. of Dev. (1994) 47:81-97). Conditioned media obtained from COS-1 cells transfected with mouse Shh-N cDNA expression plasmid or purified E. coli expressed recombinant Shh-N was used.
Briefly, a total of 20 μg RNA was hybridized to a 450 (FIG. 5A) or 120 (FIG. 7B) nucleotide riboprobe that corresponds to the 5′ untranslated region (UTR) of the COUP-TFII gene along with a 670 (FIG. 5A) or 102 (FIG. 7B) nucleotide riboprobe of the murine Cyclophilin A coding region. The RPA II™ kit from Ambion was used to perform the RNase protection assay. The products were subjected to RNase digestion and analyzed on a 6% urea polyacrylamide gel.
(§1) P-19 cells were treated with phosphatase inhibitors to study the endogenous levels of COUP-TFII mRNA. […] Total RVA was isolated from these cells and 20 μg of RNA was used in a RNase protection assay as described above in Example 6. A region of the murine Cyclophilin A cDNA was used to generate riboprobe and was used as an internal control. P19 cells were co-treated with (FIG. 7C, lane 2, 4, 6, and 7) or without (FIG. 7C, lane 1, 3, and 5) 1.0 nM Shh-N and 5 nM OA (lane 3 and 4), 0.5 nM CyA (FIG. 7C, lane 5 & 6) or 5 nm NoA (FIG. 7C, lane 9). Cells were harvested after 24 hours of treatment and the nuclear extract was obtained for the binding reactions. Extracts were subjected to an EMSA as described earlier.

ShhRE [1] = experiment: EMSA of Shh-induced protein binding to radiolabeled ShhRE, P19 nuclear extracts; type: cell-based, mouse; conditions: 1.0 nM Shh-N, 24 hours
Description: Methods described in Example 6 were used in addition to the following protocols. P19 cells were treated with or without Shh-N for 24 hours and nuclear extracts were obtained and used in an electrophoretic mobility shift assay (EMSA) with radiolabeled ShhRE. The following oligos were used as competitors or probes in these assays; WT ShhRE—GTTCTACATAATGCGCCG—SEQ ID NO:1; mShhRE—GTTCTACgTgATGCGCCG—SEQ ID NO:3; GliRE—[…]—. SEQ ID NO:4, Different amounts of unlabeled Gli response element (GliRE) (FIG. 5C, lane 3, 100X; lane 4, 50X; lane 5, 25X; and lane 6, 10X) or ShhRE (lane 7; 100X, lane 8; 50X and lane 9; 10X) was used as a competitor at the indicated molar excess.
In EMSA, radiolabeled probe was incubated with the nuclear extracts (10 μg) along with 4 μg poly dG-dC in a binding reaction containing 10 mM Tris pH 7.5, 50 mM NaCl, 1 mM EDTA, 1 mM DTT, 0.1 mg/ml BSA, and 5% glycerol. Later the mixture was loaded onto a 5% polyacrylamide gel and the retarded complexes were separated-in 1× TBE buffer and analyzed using autoradiography.
as §1

phosphatase 1 (PP1) = conditions: read-out: IC50, phosphatase 1 (PP1) inhibition; cited from earlier work
Ci = Ci induction in cl-8 cells with or without HH-N conditioned medium, Western blot; type: cell-based, Drosophila; conditions: up to 100 nM, 4 hours, presence of HH or not
Description: cl-8 cells were cultured as described in Van Leeuwen, F., et al. Nature, 368:342-344, 1994. Culture and transfection of S2 cells were performed as described in Porter, J. A. et al. Cell, 86: 21-34, 1996. The conditioned medium was made by culturing transfected S2 cells in cl-8 medium, and induced by adding CUSO4, to the final concentration of 0.5 Mm overnight. The conditioned medium was harvested the next day, centrifuged to remove S2 cells and the supernatant was used. To make lysate from cl-8 cells, cl-8 cells were washed, harvested in cold phosphate buffered saline (PBS), and then resuspended in NP-40 lysis buffer (150 Mm NaCl, 50 Mm Tris pH8, 1% NP-40, 1 Mm EDTA, 20 μg/ml aprotinin, 20 μg/ml leupeptin, 1 μg/ml pepstatin A, 2.5 μg/ml antipain, 100 μM PMSF, 50 mM NaF, 5 mM Na2P4O7). Cells were lysed at 4° C. for 10 minutes, then centrifuged at 13,000×g for 10 minutes. The supernatant was saved for Western blot analysis.
SDS-PAGE and protein transfer were carried out by standard methods. The primary antibodies used were: rat monoclonal anti-Ci 2Al 1:20 dilution; mouse monoclonal anti-Ptc 1:1000 dilution; mouse monoclonal anti-actin 1:2500. Secondary antibodies were from Jackson Immunologicals. The filters were developed using SuperSignal from Pierce.
Tautomycin (TAU) and okadaic acid (OA) were purchased from Calbiochem and dissolved in dimethyl sulfoxide (DMSO) to different concentrations. The phosphatase inhibitors were mixed with conditioned medium and the concentration of DMSO was adjusted to 0.2% for each sample. cl-8 cells were incubated with conditioned medium and phosphatase inhibitor mixture for 4 hours and lysed for analysis.

ShhRE [2] = experiment: ShhRE-tkCAT reporter mRNA and enzyme activity in P19 cells with cycloheximide; type: cell-based, mouse; conditions: 50 μM for 14 hours
Description: Methods described in Example 6 were used in addition to the following protocols. P19 cells were co-transfected with either three copies of the ShhRE or mutant ShhRE (mShhRE) element placed upstream of the tk-CAT along with tk-LUC plasmid as an internal control. Cells were treated with 1.0 nM Shh-N (12 hours) and with or without 50 μM cycloheximide (Chx) for 14 hours and harvested to obtain total RNA. Sixty μg of total RNA from these cells were used in an RNase protection assay. RNase protection assays were performed as described in Example 6. Specific riboprobes were generated to analyze the relative levels of the CAT and LUC mRNA levels. A 255 bp region of the CAT coding sequence or 123 bp of the luciferase coding region was used to generate an antisense riboprobe and was hybridized with 60 μg of total RNA, obtained from transfected P19 cells. The amount (50 μM) and extent (14 hours) of cycloheximide treatment was based on inhibition of protein synthesis as indicated by a significant loss in reporter enzyme activity.

lambda phosphatase = target: T1, lambda phosphatase (Escherichia phage lambda, UniProt P03772); experiment: Lambda phosphatase treatment of immunoprecipitated Ci, mobility shift; type: biochemical; conditions: 1 mM sodium orthovanadate, 30° C. for 1 hour
T1 sequence (P03772 1-221): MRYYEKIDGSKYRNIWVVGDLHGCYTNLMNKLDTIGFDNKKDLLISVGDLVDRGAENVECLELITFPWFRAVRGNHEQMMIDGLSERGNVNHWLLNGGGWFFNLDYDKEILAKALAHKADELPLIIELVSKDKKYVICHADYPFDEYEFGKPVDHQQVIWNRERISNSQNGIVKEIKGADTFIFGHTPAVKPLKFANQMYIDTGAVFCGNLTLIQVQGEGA
Description: cl-8 cells were incubated in conditioned medium for 4 hours and lysed on ice for 20 minutes in 1 ml of NP-40 lysis buffer per T75 flask. The lysate was incubated with 100 μl of anti-Ci 2A1 or 0.3 μl of normal rat serum at 4° C. for 2 hours. 50 μl of 50% Protein G beads were added and incubated for 1 hour. The beads were collected and washed in NP-40 lysis buffer, then in lambda phosphatase buffer (50 mM Tris pH 7.8, 5 mM dithiothritol, 20 mM MnCl2, […] bovine serum albumin, 20 μg/ml aprotinin, 20 μg/ml leupeptin, 1 μg/ml pepstatin A, 2.5 μg/ml antipain, 100 μM PMSF). The beads were resuspended in 50 μl of lambda phosphatase buffer, plus 1 mM of sodium orthovanadate or 1.5 μl (30 unit) of lambda phosphatase according to the procedure. Each sample was incubated at 30° C. for 1 hour, then washed in NP-40 lysis buffer, and was boiled in SDS sample buffer for analysis.

[3] = tested on: PP1 and PP2A enzyme activity; experiment: Protein phosphatase assay on nuclear extracts of control and Shh treated P19 cells; type: biochemical, mouse
Description: P19 cells were treated with or without 1 nM Shh for 36 hours and nuclear extracts from these cells were obtained as described earlier. A protein phosphatase assay system™ (Life Technologies, Bethesda) was used to quantitate the phosphatase activity present in the control and induced extracts. P19 cells were treated with or without 1 nM Shh for 36 hours and nuclear extracts from these cells were obtained and incubated with 2 nM OA or 4 nM Inh-2 protein for 15 minutes at 30° C. Results are expressed as mean±sd from three separate experiments.

COC[C@@H]([C@H](O)[C@H](O)C(=O)NCC[C@H](C)c1nc(/C=C/C[C@@H]2O[C@]3(C[C@@H](O)[C@@H]2C)O[C@H]([C@H](C[C@H](O)[C@H](C)[C@H](O)[C@H](C)/C=C(C)/C(C)=C/C=C/C(C)=C\C#N)OC)[C@H](OP(=O)(O)O)C3(C)C)co1)N(C)C [CyA, calyculin A]
Shh-induced COUP-TFII mRNA (COUP-TFII mRNA; 0.5 nM for 12 hours): complete inhibition
Shh-induced binding to radiolabeled ShhRE (ShhRE [1]; 0.5 nM): abolished

CO[C@H]([C@H](O)CC(=O)[C@@H](C)[C@@H](O)CC[C@@H](C)[C@@H]1O[C@]2(CC[C@@H](C)[C@H](CC[C@H](C)C(C)=O)O2)CC[C@@H]1C)[C@H](OC(=O)C[C@@H](O)C1=C(C)C(=O)OC1=O)C(C)C [TAU, Tautomycin]
IC50 (phosphatase 1 (PP1)): 10 nM
effect on Ci (Ci): did not to have any effect

C[C@@H]1C[C@@H]([C@H](O)CC2CC(=O)NC(=O)C2)C(=O)[C@@H](C)C1 [cycloheximide]
CAT and luciferase activities (ShhRE [2]): inhibited
Shh-induced increase in CAT mRNA (ShhRE [2]; 1 nM Shh-N): not altered

[Na+].[Na+].[Na+].[O]=[V]([O-])([O-])[O-] [sodium orthovanadate]
effect of lambda phosphatase on Ci mobility (lambda phosphatase): reversed

Nor-Okadone [NoA]
Shh-induced COUP-TFII mRNA (COUP-TFII mRNA; 5 nM for 12 hours): incapable of inhibiting
Shh-induced binding to radiolabeled ShhRE (ShhRE [1]; 5 nM): unable to inhibit

Shh-N: purified E. coli expressed recombinant amino-terminal fragment of mouse Sonic hedgehog
net increase in phosphatase activity after Shh treatment ([3]; 1 nM Shh, 36 hours, P19 nuclear extracts): 2 fold
concentration at which a significant increase in COUP-TFII mRNA was observed (COUP-TFII mRNA; P19 cells, 24 hours, densitometric analysis): ≤ 0.2 nM

B1: Inhibitor-2: Inh-2 protein, a specific inhibitor of PP1 (protein, UniProt P41236 2-205, looked up)
Protein phosphatase inhibitor …: AASTASHRPIKGILKNKTSTTSSMVASAEQPRGNVDEELSKKSQKWDEMNILATYHPADKDYGLMKIDEPSTPYHSMMGDDEDACSDTEATEAMAPDILARKLAAAEGLEPKYRIQEQESSGEEDSDLSPEEREKKRQFEMKRKLHYNEGLNIKLARQLISKDLHDDDEDEEMLETADGESMNTEESNQGSTPSDQQQNKLRSS
Shh-induced phosphatase activity ([3]; 4 nM Inh-2 protein, 15 minutes at 30° C.): unable to inhibit
